Assay results taken from article PMC10115881, “Disrupting the α-synuclein-ESCRT interaction with a peptide inhibitor mitigates neurodegeneration in preclinical models of Parkinson’s disease” (Nature Communications, 2023).

How the values were obtained:
A53T a-syn or EV rats [1] = test: AAV-A53T a-syn rat model, low titer; assay type: in vivo
Excerpt: (§1) Third, we used a preclinical rat model of PD in which SN degeneration is induced by AAV vector-mediated expression of human mutant A53T a-syn[18],[45]–[48] (Fig. 5A). […] (Fig. 5B, C). […] Furthermore, overexpression of A53T a-syn was associated with a reduction in LAMP1 positive puncta in the SN which was restored with PDpep1.3 (Figs. 5E, S5E). […] Forelimb asymmetry in the cylinder test is a behavioral impairment associated with SN degeneration which models bradykinesia, the cardinal motor abnormality in PD[49].
Adult female Sprague-Dawley rats (250–280 g; Envigo) were pair-housed in cages with wood bedding and had access to food and water ad libitum. The animal colony was maintained in a regular 12 h light/dark cycle. All procedures were approved by the University Health Network Animal Care Committee in accordance with guidelines and regulations set by the Canadian Council on Animal Care (AUP #3818).
Animals were secured in a stereotactic frame under isoflurane/oxygen anesthesia and ketoprofen (5 mg/kg) analgesia. The surgical site was shaved and sterilized with iodine/betadine prior to making a 2 cm incision along the midline. The scalp was exposed and a unilateral injection targeting the SN was performed at coordinates AP −5.2 mm, ML −2 mm and DV −7.5 mm with respect to the bregma as a point of reference. […]
(§2) Immunofluorescence staining for a-syn, pS129 a-syn, TH, and LAMP1 was performed by washing free-floating sections with PBS-T (0.1% Tween-20 or 0.2% Triton-X-100) three times for 10 min each at room temperature. […] Sections were then mounted onto glass slides and allowed to dry and then Dako fluorescence mounting medium (Agilent) was applied, followed by coverslips.
(§3) Confocal images of immunofluorescent staining of midbrain sections were processed using HALO software (Indica Labs), which is a well validated tool for automatic quantification of neurons in brain tissue sections[70]–[72]. […] Levels of total a-syn were assessed in this ROI by measuring the area and intensity of anti-a-syn staining. […]

A53T a-syn or EV rats [2] = test: AAV-A53T a-syn rat model, high titer, TH+ neurons; assay type: in vivo; conditions: 6 weeks
Excerpt: as §1
Adult female Sprague-Dawley rats (250–280 g; Envigo) were pair-housed in cages with wood bedding and had access to food and water ad libitum. […]
as §2, §3

DEEIERQLKALG [PDpep1.3]
Effect on LAMP1 positive puncta in SN (A53T a-syn or EV rats [1]): restored | Effect on total a-syn positive area in SN (A53T a-syn or EV rats [1]): significant reduction in total a-syn positive area in the SN | a-syn mean fluorescence intensity in TH+ and GFP+ SN cells (A53T a-syn or EV rats [1]; n = 5–7 rats/group): 0.335 ± 0.025 RFU | Effect on neurodegeneration in SN (A53T a-syn or EV rats [2]): neurodegeneration was mitigated
